Results taken from patent US10662194B2, “Substituted 6-anilino-9-heterocyclylpurine derivatives for inhibition of plant stress” (UNIVERZITA PALACKEHO V OLOMOUCI, priority 2014, dated 2020).
Read-outs that look alike come from different tables or passages of the source.

Key:
[1] = tested on: wild-type Arabidopsis plants; assay: In vitro root growth of wild-type Arabidopsis plants; type: in vivo; settings: 0.1 μM in MS medium, FIG. 6
Protocol: As shown in previous example presence of compound 12 in the growth medium has positive effect on the root growth of cytokinin-deficient Arabidopsis plants. This effect was further studied using wild-type Arabidopsis plants and compared with biologically and structurally relevant compounds, a cytokinin BAP and a CKX inhibitor INCYDE. […] Arabidopsis seedlings were grown in vitro on a standard MS medium containing 0.1 μM cytokinin BAP, the same concentration of compound 12 and the same concentration of CKX inhibitor INCYDE (2-chloro-6-(3-methoxyanilino)purine).

[2] = tested on: CKX1 overproducing (35S:CKX1) Arabidopsis seedlings; assay: In vitro shoot and root growth of cytokinin deficient Arabidopsis plants; type: in vivo; settings: for complementation of wild type shoot phenotype: 0.1 μM in MS medium, FIG. 3, 4
From the text: Constitutive overexpression of CKX in 35S:CKX1 plants leads to enhanced root growth. If CKX inhibitor can restore WT phenotype, it is expected that inhibition of the CKX activity in 35S:AtCKX1 plants should thus have no effect or inhibit their root growth. Such observation was done in case of INCYDE, but not compound 12.

recombinant AtCKX2 = molecular target: T1, recombinant AtCKX2 (Arabidopsis thaliana, UniProt Q9FUJ3); assay: Inhibition of cytokinin oxidase/dehydrogenase activity (PMS/MTT microtitre assay); type: biochemical
T1 construct: made in house; host or cells: S. cerevisiae strain 23344c ura-
T1 sequence (Q9FUJ3 23-501): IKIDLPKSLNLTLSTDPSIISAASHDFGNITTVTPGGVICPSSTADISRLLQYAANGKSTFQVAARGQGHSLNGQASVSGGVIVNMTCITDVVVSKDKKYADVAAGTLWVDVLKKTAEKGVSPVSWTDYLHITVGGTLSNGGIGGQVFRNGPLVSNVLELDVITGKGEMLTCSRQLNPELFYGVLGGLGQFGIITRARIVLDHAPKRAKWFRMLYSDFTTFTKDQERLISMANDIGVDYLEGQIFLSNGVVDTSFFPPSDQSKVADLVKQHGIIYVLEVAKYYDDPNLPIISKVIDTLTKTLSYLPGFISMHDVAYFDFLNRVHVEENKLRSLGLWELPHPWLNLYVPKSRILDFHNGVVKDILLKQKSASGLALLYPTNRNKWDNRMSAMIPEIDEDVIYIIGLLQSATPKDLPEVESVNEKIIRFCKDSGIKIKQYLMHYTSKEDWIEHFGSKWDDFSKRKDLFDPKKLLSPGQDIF
Protocol: IC50 measurements were done using the assay in microtitre plate. Each well contained 100 μL of PMS/MTT [phenazine methosulfate/3-(4,5-dimethylthiazol-2-yl)-2,5-diphenyltetrazolium bromide] reaction mixture (final concentrations: 0.1 M KH2PO4, pH 7.4, 1 mM MTT, 0.2 mM PMS) containing the tested compound (3×10^−7 M-3×10^−4 M) and 30 μM N^6-isopentenyladenine (iP) as a substrate. 100 μL of cell-free growth medium of S. cerevisiae strain 23344c ura^− harboring the plasmid pYES2-AtCKX2 was directly used as a source of AtCKX2. Plates were incubated in the dark for 30 min at 37° C. and the enzymatic reaction was stopped by 25 μL of 35% acetic acid. The absorbance at 578 nm was measured using spectrophotometer Tecan. Absorbance of the sample without iP was subtracted.
The IC50 value, the compound concentration that inhibits the enzyme activity to 50%, was calculated from the obtained dose response curves. The values shown in Table 7 are means of three replicates and the entire test was repeated at least twice. […] Compound 12 is an effective inhibitor of AtCKX2 activity, app. 3-times stronger that thidiazuron and only app. 3-times weaker than the structurally related compound INCYDE (2-chloro-6-(3-methoxyanilino)purine).

CRE1/AHK4 = molecular target: T2, CRE1/AHK4 (Arabidopsis thaliana, UniProt Q9C5U0); assay: Escherichia coli cytokinin receptor activation assay (CRE1/AHK4); type: cell-based; settings: 10^−7 M-5×10^−5 M, compared to trans-zeatin, FIG. 1
T2 construct: expressed in transfected cells; host or cells: Escherichia coli strain KMI001
Protocol: (§1) Escherichia coli strains KMI001 harbouring the plasmid pIN-III-AHK4 or pSTV28-AHK3 were grown overnight at 25° C. in M9 media enriched with 0.1% casamino acids to OD600˜1. The preculture was diluted 1:600 in 1 ml M9 medium containing 0.1% casamino acids and 1 μL stock solution of either the tested compound (10^−7 M-5×10^−5 M) or solvent control (DMSO, ethanol, methanol) were added. The cultures were further grown at 25° C. in microtiter plate, 200 μL per well. […] The cultures were centrifuged and 50 μL aliquots of the supernatant were transferred to microtiter plate containing 2 μL 50 mM 4-methyl umbelliferyl galactoside which was subsequently incubated for 1 h at 37° C. The reaction was stopped by adding 100 μL 0.2 M Na2CO3. Fluorescence was measured using a Fluoroscan Ascent (Labsystems, Finland) at the excitation and emission wavelengths of 365 and 460 nm, respectively. The OD600 of remaining culture was determined and β-galactosidase activity was calculated as nmol 4-methylumbelliferone×OD600^−1×h^−1.

AHK3 = molecular target: T3, AHK3 (Arabidopsis thaliana, UniProt Q9C5U1); assay: Escherichia coli cytokinin receptor activation assay (AHK3); type: cell-based; settings: 10^−7 M-5×10^−5 M, compared to trans-zeatin, FIG. 1
T3 construct: expressed in transfected cells; host or cells: Escherichia coli strain KMI001
T3 sequence (Q9C5U1 1-1036): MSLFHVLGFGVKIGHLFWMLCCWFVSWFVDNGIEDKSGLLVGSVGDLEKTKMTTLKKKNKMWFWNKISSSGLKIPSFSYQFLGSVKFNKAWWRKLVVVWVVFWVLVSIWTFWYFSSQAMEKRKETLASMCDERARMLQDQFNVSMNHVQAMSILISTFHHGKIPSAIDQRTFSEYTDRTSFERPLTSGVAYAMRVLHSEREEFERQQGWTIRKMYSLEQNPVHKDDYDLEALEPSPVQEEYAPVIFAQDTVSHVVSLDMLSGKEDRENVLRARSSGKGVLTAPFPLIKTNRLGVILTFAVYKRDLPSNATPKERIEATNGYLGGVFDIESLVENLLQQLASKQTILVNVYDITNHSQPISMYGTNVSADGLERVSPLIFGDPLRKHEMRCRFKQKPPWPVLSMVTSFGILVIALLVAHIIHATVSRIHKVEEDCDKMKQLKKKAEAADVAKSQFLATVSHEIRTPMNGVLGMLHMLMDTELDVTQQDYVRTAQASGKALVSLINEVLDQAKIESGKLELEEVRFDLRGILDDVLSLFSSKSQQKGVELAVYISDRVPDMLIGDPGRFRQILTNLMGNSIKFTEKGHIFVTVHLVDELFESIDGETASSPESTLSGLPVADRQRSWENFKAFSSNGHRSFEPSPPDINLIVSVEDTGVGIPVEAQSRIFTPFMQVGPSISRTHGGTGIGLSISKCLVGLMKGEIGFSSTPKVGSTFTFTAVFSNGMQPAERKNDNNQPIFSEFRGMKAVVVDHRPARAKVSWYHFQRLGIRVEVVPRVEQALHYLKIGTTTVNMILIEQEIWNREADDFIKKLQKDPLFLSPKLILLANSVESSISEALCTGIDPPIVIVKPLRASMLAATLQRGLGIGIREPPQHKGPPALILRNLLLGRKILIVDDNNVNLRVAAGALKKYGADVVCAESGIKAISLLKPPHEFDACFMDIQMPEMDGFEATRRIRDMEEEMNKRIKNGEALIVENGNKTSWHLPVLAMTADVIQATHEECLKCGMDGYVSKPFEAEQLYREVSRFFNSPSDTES
Protocol: as §1

ARR5:GUS reporter gene = assay: Induction of cytokinin reporter ARR5:GUS in transgenic Arabidopsis plants; type: in vivo; settings: 0.01-10 μM, 17 h, FIG. 2
Protocol: Cytokinins induce in Arabidopsis transcription of gene ARR5, a member of A-type response regulator family classified as cytokinin primary response genes being expressed down-stream of sensing by cytokinin receptors. We cultivated transgenic Arabidopsis plants harbouring PARR5::GUS reporter (D'Agostino et al. Plant Physiol. 124: 1706-1717, 2000) in MS medium containing cytokinin BAP, CKX inhibitor INCYDE and novel compounds 12 and 91 in concentrations 0.01, 0.1, 1, 5, 10 μM; DMSO (0.1%) was tested as solvent control. Seeds were surface-sterilized in 70% ethanol and then placed into wells of 6-well microtiter plate (TPP, Switzerland) containing 3 mL of MS medium in each well. After sowing plates were pretreated in dark at 4° C. to synchronize the germination of the seeds. […] Quantitative estimation of the level of ARR5:GUS gene induction was done according to method published by Romanov et al. (Romanov et al. FEBS Letters 515: 39-43, 2002). After extraction of proteins the GUS activity was determined using incubation with fluorogenic substrate MUG (4-methylumbelliferyl glucuronid; 1 h, 37° C.) and then fluorescence 365 nm and 460 nm (excitation and emission wavelengths) was recorded, as described in detail by Spíchal et al. (Spíchal et al. Plant and Cell Physiology 45: 1299-1305, 2004).

[3] = 30 μM iP substrate, 30 min, 37° C., read-out: IC50

T2 sequence (Q9C5U0 whole entry): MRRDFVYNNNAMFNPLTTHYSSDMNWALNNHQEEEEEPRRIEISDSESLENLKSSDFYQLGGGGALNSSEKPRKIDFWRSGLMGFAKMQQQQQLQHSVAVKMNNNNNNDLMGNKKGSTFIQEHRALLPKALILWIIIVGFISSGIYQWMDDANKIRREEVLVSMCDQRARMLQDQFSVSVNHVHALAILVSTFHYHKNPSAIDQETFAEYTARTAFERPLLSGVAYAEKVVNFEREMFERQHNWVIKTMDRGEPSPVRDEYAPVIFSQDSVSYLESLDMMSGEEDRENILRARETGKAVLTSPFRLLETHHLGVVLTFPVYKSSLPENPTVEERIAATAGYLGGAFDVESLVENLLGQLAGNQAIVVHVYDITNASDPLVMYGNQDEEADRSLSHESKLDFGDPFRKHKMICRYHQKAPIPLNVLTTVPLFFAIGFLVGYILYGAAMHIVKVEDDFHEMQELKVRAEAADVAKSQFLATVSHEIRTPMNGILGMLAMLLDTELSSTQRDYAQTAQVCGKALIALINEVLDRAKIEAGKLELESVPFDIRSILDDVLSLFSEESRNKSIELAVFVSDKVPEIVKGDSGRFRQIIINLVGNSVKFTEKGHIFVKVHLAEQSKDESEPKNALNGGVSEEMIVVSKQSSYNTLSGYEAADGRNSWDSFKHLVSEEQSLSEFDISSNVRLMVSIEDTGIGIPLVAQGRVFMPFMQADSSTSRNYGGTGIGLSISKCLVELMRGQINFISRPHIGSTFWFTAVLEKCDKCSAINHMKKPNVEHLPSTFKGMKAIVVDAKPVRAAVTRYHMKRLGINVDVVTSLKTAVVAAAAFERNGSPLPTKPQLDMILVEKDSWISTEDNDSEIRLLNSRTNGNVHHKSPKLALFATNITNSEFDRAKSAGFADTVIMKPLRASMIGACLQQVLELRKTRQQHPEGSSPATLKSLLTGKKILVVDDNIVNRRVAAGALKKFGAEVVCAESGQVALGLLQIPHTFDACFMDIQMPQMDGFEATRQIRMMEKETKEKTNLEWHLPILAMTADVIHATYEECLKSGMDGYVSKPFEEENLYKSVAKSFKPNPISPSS

| IC50 (recombinant AtCKX2; [3]) [µM] | SMILES | root growth [1] | complementation of wild type shoot phenotype [2] | other results |
| --- | --- | --- | --- | --- |
|  | c1ccc(CNc2ncnc3nc[nH]c23)cc1 [BAP, 6-benzylaminopurine] | inhibited root growth | cannot be reached |  |
| 6.7 | COc1cccc(Nc2nc(Cl)nc3nc[nH]c23)c1 [INCYDE, 2-chloro-6-(3-methoxyanilino)purine] | inhibited root growth | led to restauration of wild type shoot phenotype | root biomass of 35S:CKX1 plants ([2]; tested concentration range, FIG. 5): did not influence the root biomass |
|  | O=C(Nc1ccccc1)Nc1cnns1 [thidiazuron, reference compound] |  |  | IC50 (recombinant AtCKX2): 55 µM |
| 5.2 | COc1cccc(Nc2nc(F)nc3[nH]cnc23)c1 [INCYDE-F, 2-fluoro-6-(3-methoxyanilino)purine, reference compound] |  |  |  |

| SMILES | IC50 (recombinant AtCKX2; [3]) [µM] | root growth [1] | complementation of wild type shoot phenotype [2] | other results |
| --- | --- | --- | --- | --- |
| COc1cccc(Nc2nc(F)nc3c2ncn3C2CCCCO2)c1 (stereo not drawn) [compound 91, 2-fluoro-6-(3-methoxyanilino)-9-(tetrahydropyran-2-yl)purine] | 380 |  |  | ability to activate cytokinin receptor CRE1/AHK4 (CRE1/AHK4): do not activate any of the receptors; ability to activate cytokinin receptor AHK3 (AHK3): do not activate any of the receptors; induction of ARR5:GUS expression (ARR5:GUS reporter gene): dose-dependent induction of ARR5:GUS expression |
